Data: PMC6637912 (Molecular Plant Pathology, 2019)
Read-outs that look alike come from different tables or passages of the source.

Target: T1, RipN (Ralstonia pseudosolanacearum, UniProt Q8XQT8)
T1 construct: gene RSp1130
Settings: Mg2+ important, NEBuffer 3, 30 min

T1 sequence (Q8XQT8 1-474): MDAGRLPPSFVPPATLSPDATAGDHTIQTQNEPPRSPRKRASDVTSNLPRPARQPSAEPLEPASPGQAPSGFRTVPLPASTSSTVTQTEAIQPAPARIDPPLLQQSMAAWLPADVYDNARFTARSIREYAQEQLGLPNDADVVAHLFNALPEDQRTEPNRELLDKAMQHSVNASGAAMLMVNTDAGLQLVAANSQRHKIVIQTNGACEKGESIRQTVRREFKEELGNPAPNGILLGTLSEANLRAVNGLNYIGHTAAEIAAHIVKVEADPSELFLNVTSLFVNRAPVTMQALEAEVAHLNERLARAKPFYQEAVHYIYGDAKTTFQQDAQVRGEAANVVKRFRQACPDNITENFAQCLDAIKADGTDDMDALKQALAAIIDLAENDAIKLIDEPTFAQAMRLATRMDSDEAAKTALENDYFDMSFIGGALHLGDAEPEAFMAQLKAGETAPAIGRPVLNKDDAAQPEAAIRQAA

SMILES	phosphate colorimetric assay coupled to alkaline phosphatase (optimum pH 7.9-8.5)	phosphate colorimetric assay coupled to alkaline phosphatase
Nc1ncnc2c1ncn2[C@@H]1O[C@H](COP(=O)(O)OP(=O)(O)OC[C@H]2OC(O)[C@H](O)[C@@H]2O)[C@@H](O)[C@H]1O (some centres unmarked) [ADPr]	RipN can hydrolyse ADPr, NADH, NAD, FAD (flavin adenine dinucleotide) and Ap4A	–
NC(=O)C1=CN([C@@H]2O[C@H](COP(=O)(O)OP(=O)(O)OC[C@H]3O[C@@H](n4cnc5c(N)ncnc54)[C@H](O)[C@@H]3O)[C@@H](O)[C@H]2O)C=CC1 [NADH]	–	with ADPr and NADH being the preferred substrates in vitro
